SMILES strings stand for the structures.

The text below walks through data of patent US6893654B2, “Two-stage transmucosal medicine delivery system for symptom relief” (priority 1998, dated 2005).

The conditions of this data set: solution at pH 8.0.

`CN1CCCC1c1cccnc1` (stereo not shown) [nicotine]: the “portion of nicotine unionized and free to be absorbed” value is “fifty”.
